From ChEMBL document CHEMBL2413012, “Inhibition of tumor-associated human carbonic anhydrase isozymes IX and XII by a new class of substituted-phenylacetamido aromatic sulfonamides” (Bioorg Med Chem, 2013) come the findings set out here.

In the first assay the target is Carbonic anhydrase 12 (Homo sapiens, UniProt O43570). Description: Inhibition of human recombinant carbonic anhydrase 12 preincubated for 10 mins by CO2 hydration stopped-flow assay.
Carbonic anhydrase 12, sequence (O43570 whole entry): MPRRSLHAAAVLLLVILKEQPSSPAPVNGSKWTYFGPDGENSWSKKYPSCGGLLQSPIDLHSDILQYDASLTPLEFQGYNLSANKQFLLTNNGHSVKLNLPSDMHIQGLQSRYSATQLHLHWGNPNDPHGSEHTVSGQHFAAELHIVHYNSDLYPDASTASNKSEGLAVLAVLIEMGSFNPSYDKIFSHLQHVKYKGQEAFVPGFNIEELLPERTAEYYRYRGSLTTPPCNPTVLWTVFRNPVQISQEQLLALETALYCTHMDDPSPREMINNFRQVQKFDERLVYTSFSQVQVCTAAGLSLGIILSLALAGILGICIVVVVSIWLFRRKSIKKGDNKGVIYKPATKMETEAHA
For orientation: Ki means the dissociation constant of the complex between target and ligand, obtained from inhibition or displacement. In the case of `COc1ccc(CC(=O)NCCc2ccc(S(N)(=O)=O)cc2)cc1`, the Ki amounted to 0.43 nM.

Consider `NS(=O)(=O)c1ccc(CCNC(=O)Cc2ccc(Cl)cc2)cc1`, for which the Ki was determined as 3.4 nM.

The target of the next assay is Carbonic anhydrase 9 (Homo sapiens, UniProt Q16790). Description: Inhibition of human recombinant carbonic anhydrase 9 preincubated for 10 mins by CO2 hydration stopped-flow assay.
As to `NS(=O)(=O)c1ccc(NC(=O)Cc2ccc(F)cc2)c(Br)c1`, the Ki is 5 nM.

On to `NS(=O)(=O)c1ccc(CCNC(=O)Cc2ccccc2Br)cc1`, for which the Ki came to 0.57 nM.

In the case of `COc1ccc(CC(=O)NCCc2ccc(S(N)(=O)=O)cc2)cc1`, the inhibition constant Ki came out at 0.25 nM.

Regarding `COc1ccc(CC(=O)Nc2ccc(S(N)(=O)=O)cc2)cc1`, the Ki was found to be 0.32 nM.

As to `NS(=O)(=O)c1ccc(CCNC(=O)Cc2ccc(Cl)cc2)cc1`, the inhibitory constant (Ki) is 1.2 nM.

Turning to `NS(=O)(=O)c1ccc(CNC(=O)Cc2ccccc2Br)cc1`, the Ki was 1 nM.

On to `NS(=O)(=O)c1ccc(NC(=O)Cc2ccc(Cl)cc2)c(Cl)c1`, for which the Ki is 6.3 nM.

On to `NS(=O)(=O)c1ccc(CCNC(=O)Cc2ccc(F)cc2)cc1`, for which the Ki worked out at 6.5 nM.

For `NS(=O)(=O)c1ccc(NC(=O)Cc2ccc(F)cc2)c(F)c1`, the inhibitory constant (Ki) came to 7.2 nM.

As to `COc1ccc(CC(=O)NCc2ccc(S(N)(=O)=O)cc2)cc1`, the Ki came out at 0.45 nM.

Take `NS(=O)(=O)c1nnc(NC(=O)Cc2ccc(Cl)cc2)s1`: the inhibitory constant (Ki) came to 1.3 nM.

As to `NS(=O)(=O)c1ccc(NC(=O)Cc2ccc(Cl)cc2)cc1`, the inhibition constant (Ki) was determined as 72.5 nM.

In the case of `NS(=O)(=O)c1ccc(NC(=O)Cc2ccc(F)cc2)c(Cl)c1`, the inhibition constant (Ki) came to 10.1 nM.

On to `NS(=O)(=O)c1ccc(NC(=O)Cc2ccccc2Br)cc1`, for which the Ki was 0.44 nM.

`NS(=O)(=O)c1ccc(NC(=O)Cc2ccc(Cl)cc2)c(Br)c1`: the Ki was 1.2 nM.

For the molecule `NS(=O)(=O)c1ccc(NC(=O)Cc2ccccc2Br)c(Cl)c1`, the inhibitory constant (Ki) was 0.74 nM.

With `NS(=O)(=O)c1nnc(NC(=O)Cc2ccc(F)cc2)s1`, the inhibitory constant (Ki) stood at 2.1 nM.

For the molecule `COc1ccc(CC(=O)Nc2ccc(S(N)(=O)=O)cc2F)cc1`, the Ki was determined as 1.8 nM.

On to `NS(=O)(=O)c1ccc(CNC(=O)Cc2ccc(Cl)cc2)cc1`, for which the Ki came to 0.53 nM.

On to `NS(=O)(=O)c1ccc(NC(=O)Cc2ccccc2Br)c(F)c1`, for which the inhibitory constant (Ki) was 1.6 nM.

With `NS(=O)(=O)c1nnc(NC(=O)Cc2ccccc2Br)s1`, the Ki stood at 0.61 nM.

Take `COc1ccc(CC(=O)Nc2ccc(S(N)(=O)=O)cc2Cl)cc1`: the inhibition constant (Ki) is 0.41 nM.

On to `COc1ccc(CC(=O)Nc2ccc(S(N)(=O)=O)cc2Br)cc1`, for which the Ki was 0.62 nM.

Consider `COc1ccc(CC(=O)Nc2nnc(S(N)(=O)=O)s2)cc1`, for which the Ki worked out at 0.31 nM.

Consider `NS(=O)(=O)c1ccc(NC(=O)Cc2ccc(Cl)cc2)c(F)c1`, for which the Ki is 7.8 nM.

On to `NS(=O)(=O)c1ccc(NC(=O)Cc2ccc(F)cc2)cc1`, for which the Ki was found to be 4.7 nM.

For the molecule `NS(=O)(=O)c1ccc(NC(=O)Cc2ccccc2Br)c(Br)c1`, the Ki is 0.52 nM.
